Entries after “also recorded” stand apart in the source; their conditions may differ.
Legend:
[1] = tested on: human stomach cancer cell line SNU-16; assay: In vivo combined use with Ki23057, SNU-16-transplanted nude mice; parameters: species or system nude mouse; conditions: in combination with hFR2-14_H19/L1 20 mg/kg
Experimental: A human stomach cancer cell line SNU-16 (purchased from ATCC) was adjusted to 5×10^7 cells/mL with a 1:1 mixed solution of PBS and Matrigel (purchased from Nippon Becton Dickinson Company, Ltd.), and 0.1 mL of the cell suspension was subcutaneously transplanted to the axillary region of each nude mouse (CAnN.Cg-Foxnl^nu/CrlCrlj, female, 5 to 6 weeks old, purchased from Charles River Laboratories Japan Inc.). […] Administration of hFR2-14_H19/L1 was carried out 8, 11, 15, and 18 days after transplantation, and administration of Ki23057 was carried out 8, 9, 10, 11, 15, 16, 17, and 18 days after transplantation. The major axis (mm) and minor axis (mm) of the tumor were measured over time using an electronic digital caliper (manufactured by Mitsutoyo Corp.). The tumor volume was calculated according to the following expression: Tumor volume (mm^3)=½×[Major axis of the tumor]×[Minor axis of the tumor]×[Minor axis of the tumor]
The antitumor effect was evaluated on the basis of the percentage of tumor growth inhibition (TGI %) at 21 days after transplantation (3 days after final administration) and 32 days after transplantation (final assay day) according to the following expression: TGI (%)=(1−A/B)×100

[2] = tested on: SNU-16 cells; assay: Amount of antigen FGFR2 on cell surface of SNU-16 treated with low-molecular compound (QIFIKIT); format: cell-based, human; conditions: 100 to 1000 nM; compared with untreated or DMSO-treated SNU-16 cells
Experimental: This operation was repeated twice. […] The data was analyzed using Flowjo (manufactured by Tree Star Inc.).

[3] = tested on: human stomach cancer cell line SNU-16; assay: In vivo combined use with AZD4547, SNU-16-transplanted nude mice; parameters: species or system nude mouse
Experimental: A human stomach cancer cell line SNU-16 (purchased from ATCC) was adjusted to 5×10^7 cells/mL with a 1:1 mixed solution of PBS and Matrigel (purchased from Nippon Becton Dickinson Company, Ltd.), and 0.1 mL of the cell suspension was subcutaneously transplanted to the axillary region of each nude mouse (CAnN.Cg-Foxnl^nu/CrlCrlj, female, 5 to 6 weeks old, purchased from Charles River Laboratories Japan Inc.). […] The major axis (mm) and minor axis (mm) of the tumor were measured over time using an electronic digital caliper (manufactured by Mitsutoyo Corp.). The tumor volume was calculated according to the following expression: Tumor volume (mm^3)=½×[Major axis of the tumor]×[Minor axis of the tumor]×[Minor axis of the tumor]
The antitumor effect was evaluated on the basis of the percentage of tumor growth inhibition (TGI %) at 21 days after transplantation (final assay day) according to the following expression: TGI (%)=(1−A/B)×100

| Compound | TGI at 21 days after transplantation ([1]; Ki23057 5 mg/kg orally) [%] | TGI at 32 days after transplantation (final assay day) ([1]; Ki23057 5 mg/kg orally) [%] | TGI at 21 days after transplantation ([1]; Ki23057 20 mg/kg orally) [%] | TGI at 32 days after transplantation (final assay day) ([1]; Ki23057 20 mg/kg orally) [%] | number of the antigen FGFR2 on cell surface [2] | number of CR individuals among 9 mice at 21 days after transplantation ([3]; administered alone, hFR2-14_H19/L1 20 mg/kg) | TGI at 21 days after transplantation (final assay day) ([3]; hFR2-14_H19/L1 20 mg/kg intraperitoneally, AZD4547 3 mg/kg orally) [%] |
| --- | --- | --- | --- | --- | --- | --- | --- |
| COc1cc2c(Oc3ccc(Nc4ccc(C(C)(C)C)cc4)cc3)ccnc2cc1OCCNCCO [Ki23057, 2-((2-((4-(4-((4-(tert-butyl)phenyl)amino)phenoxy)-6-methoxyquinolin-7-yl)oxy)ethyl)amino)ethanol] | 7 | 1 | 29 | −14 | elevated; also recorded: increased | – | – |
| COc1cc(CCc2cc(NC(=O)c3ccc(N4C[C@@H](C)N[C@@H](C)C4)cc3)n[nH]2)cc(OC)c1 [AZD4547, N-(5-(3,5-dimethoxyphenethyl)-1H-pyrazol-3-yl)-4-((3S,5R)-3,5-dimethylpiperazin-1-yl)benzamide, reference compound] | – | – | – | – | – | 0 | 24 |

From patent publication US9931401B2, “Combination comprising anti-fibroblast growth factor receptor 2 (FGFR2) antibody and a tyrosine kinase inhibitor” (Daiichi Sankyo Company, Limited, priority 2013, dated 2018)
